# Reference: patent publication US20060240494A1, “Biocidal molecules, macromolecular targets and methods of production and use” (priority 2000, published 2006)
# Values joined by “and” are separate entries in the source; they are usually repeats but may differ in a detail not shown here. Equal entries are not always repeated. Where two headings read alike, the source gives them in different places. Non-standard residues stand in square brackets, D forms with d. Residues, ends and D or L forms follow the SMILES beside them. No end group written: not given here. Ac6c = NC1(C(=O)O)CCCCC1; Dap = NC[C@H](N)C(=O)O
# How the values were obtained:
# M. luteus = assay: Growth inhibition assay, M. luteus; type: cell-based, Micrococcus luteus; conditions: Luria-Bertani rich nutrient medium
# Procedure: Growth inhibition assays are performed using the candidate antibacterial compounds and the Gram positive microorganisms Micrococcus luteus and Bacillus megaterium, and the Gram negative microorganisms, Escherichia coli D22, Agrobacterium tumefaciens, and Salmonella typhimurium. Antibacterial assays are performed in sterilized 96-well plates (Nunc F96 microtiter plates) with a final volume of 100 μl as described in Bulet (1996), cited above. Briefly, 90 μl of a suspension of a midlogarithmic phase bacterial culture at an initial 600 nm UV absorbance of 0.001 in Luria-Bertani rich nutrient medium is added to 10 μl of serially diluted candidate compounds in sterilized water. The final compound concentrations range between 0.15 and 80 μM, and more preferably between 0.3 μM and 40 μM. The plates are incubated at 30° C. for 24 hours with gentle shaking, and the growth inhibition is measured by recording the increase of the UV absorbance at 600 nm on an SLT Labinstruments 400 ATC microplate reader. The experiments are conducted over a 7-month period.
# The inhibitory concentrations (IC50) of each candidate compound is determined against each above-indicated microorganism.
# As one example, this in vitro antibacterial assay was performed on a broad spectrum divalent pyrrhocoricin analog, Chex-Pyrrhocoricin-2-19-Dap-[Chex-Pyrrhocoricin-2-19-Dap(Ac)], and the results illustrated in Table 4.
# [1] = within a four-hour period; Hoffmann et al, 1999; cited from earlier work
# E. coli DnaK aa583-615 = E. coli DnaK aa583-615 (Escherichia coli, UniProt P0A6Y8); assay: Circular dichroism of peptide - E. coli DnaK fragment mixtures; type: binding; conditions: DnaK spectrum subtracted from mixture
# E. coli DnaK aa583-615, sequence (P0A6Y8 584-616 limits assumed): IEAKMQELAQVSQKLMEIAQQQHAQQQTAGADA
# From the text: CD spectra are taken in water, and water-trifluoroethanol (TFE) mixtures to determine whether the characteristic unordered or turn→α-helix conformational transition, frequently observed for peptide fragments of helical domains of proteins, occurs at identical TFE concentrations. In pure water, the CD spectra of the E. coli and S. aureus DnaK fragments could be assigned as a type C spectrum, and reflect the dominance of type I (III) β-turns, or a mixture of type I and type II turns. […] This is an unmistakable indication of the appearance of helical structures, most likely 310-helices. The two DnaK fragments behaved identically, at least in spectral terms. While the spectral features of well-developed α-helices could already be seen at a TFE concentration as low as 10%, the intensity was increased with increasing TFE content. In 100% TFE a fully α-helical spectrum was recorded.
# To estimate the bound conformation of the antibacterial peptides, the spectra of drosocin or pyrrhocoricin alone, as well as those of the E. coli and S. aureus DnaK fragments were recorded, followed by the recording of the CD spectra of antibacterial peptide-DnaK fragment mixtures. […]
# [2] = tested on: β-galactosidase activities of live E. coli TG-1 cells; type: cell-based; conditions: for Inhibition of enzymatic activity after 1 hour (%) β-Galactosidase: peptide 32 μg/mL, live E. coli TG-1, three independent assays
# [3] = tested on: alkaline phosphatase activities of live E. coli TG-1 cells; type: cell-based; conditions: peptide 32 μg/mL; live E. coli TG-1; four independent assays
# recombinant E. coli DnaK = biological target: T1, recombinant E. coli DnaK (Escherichia coli, UniProt P0A6Y8); assay: EnzChek ATPase assay, recombinant DnaK; type: biochemical; conditions: 50 molar equivalents of peptide; 22° C., 30 min; UV absorbance at 360 nm
# T1 construct: purchased StressGen, Victoria, Canada
# T1 sequence (P0A6Y8 whole entry): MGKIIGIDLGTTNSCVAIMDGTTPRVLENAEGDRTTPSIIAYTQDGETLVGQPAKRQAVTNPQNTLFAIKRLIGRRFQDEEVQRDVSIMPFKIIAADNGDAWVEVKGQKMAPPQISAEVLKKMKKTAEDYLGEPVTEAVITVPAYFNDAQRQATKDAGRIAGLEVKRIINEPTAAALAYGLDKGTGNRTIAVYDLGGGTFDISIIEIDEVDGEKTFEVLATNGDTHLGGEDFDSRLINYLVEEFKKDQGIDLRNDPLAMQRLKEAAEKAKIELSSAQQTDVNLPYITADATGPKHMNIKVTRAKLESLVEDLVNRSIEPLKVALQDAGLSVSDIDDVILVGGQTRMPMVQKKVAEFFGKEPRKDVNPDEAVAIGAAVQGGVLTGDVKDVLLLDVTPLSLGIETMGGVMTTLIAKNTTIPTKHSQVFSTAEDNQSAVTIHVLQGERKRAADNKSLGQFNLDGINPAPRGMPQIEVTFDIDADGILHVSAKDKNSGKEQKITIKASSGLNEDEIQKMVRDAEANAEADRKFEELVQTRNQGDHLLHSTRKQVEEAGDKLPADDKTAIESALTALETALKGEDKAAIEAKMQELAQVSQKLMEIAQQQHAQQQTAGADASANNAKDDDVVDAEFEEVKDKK
# From the text: To determine whether the proline-rich antibacterial peptides that were predicted to bind to DnaK between the peptide binding pocket and the C-terminus would interfere with ATPase activity, a recently developed continuous spectrophotometric (colorimetric) ATPase activity assay [Rieger, C. E. et al, (1997) Anal. Biochem. 246: 86-95] was used. This assay uses using 2-amino-6-mercapto-7-methylpurine ribonucleoside (MESG)/purine nucleoside phosphorylase reaction to detect the released inorganic phosphate (EnzChek ATPase determination kit from Molecular Probes, Eugene, USA). Assays were performed in 500 μL tubes in duplicates in a total volume of 125 μL containing 20 mM tris(hydroxymethyl)amino-ethane (Tris)-HCl, pH 7.6, 1 mM MgCl2, […] (except in assaying the baseline), 5 μg of DnaK (recombinant DnaK protein from StressGen,Victoria, Canada) and 50 molar equivalents of the particular peptide, MESG and the purine nucleoside phosphorylase recommended by the manufacturer. After incubation at 22° C. for 30 min, 100 μL of the reaction mixture was transferred to a quartz cuvette and the ultraviolet (UV) absorbance at 360 nm was measured. The assay was run in a miniaturized form to increase the concentration and therefore the enzymatic activity of DnaK. In a larger, standard format the ATPase activity of DnaK without peptide addition was 6 pmol/μg/min, in line with the published data of 4 pmol/μg/min [Liberek, K. et al, (1991) Proc. Natl. Acad. Sci. USA 88: 2874-2878].
# [4] = biological target: E. coli DnaK fragment aa588-615 (Escherichia coli, UniProt P0A6Y8); assay: Fluorescence polarization with synthetic DnaK fragment aa588-615; type: binding
# E. coli DnaK fragment aa588-615, sequence (P0A6Y8 589-616 limits assumed): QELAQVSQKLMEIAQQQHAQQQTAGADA
# [5] = within a four-hour period; Hoffmann et al, 1999; cited from earlier work; remark: listed apart in the source
# [6] = biological target: S. aureus aa554-585 DnaK fragment (Staphylococcus aureus, UniProt P45554); assay: Circular dichroism of peptide - S. aureus DnaK fragment mixtures; type: binding; conditions: wavelength of band maxima
# S. aureus aa554-585 DnaK fragment, sequence (P45554 554-585 limits assumed): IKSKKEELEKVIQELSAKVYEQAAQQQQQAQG
# Procedure: To estimate the bound conformation of the antibacterial peptides, the spectra of drosocin or pyrrhocoricin alone, as well as those of the E. coli and S. aureus DnaK fragments were recorded, followed by the recording of the CD spectra of antibacterial peptide-DnaK fragment mixtures. Finally the original spectra of the DnaK peptides were subtracted from the spectra of the mixtures, and the residual spectra, representing the conformation of the bound peptides were compared to the spectra of the antibacterial peptides alone. This exercise is justifiable only if the conformation of the protein fragments remain unchanged upon interaction with drosocin or pyrrhocoricin. […] It is expected that the binding will not modify the helix structure of the rigid DnaK fragments, but can influence the conformation of the flexible antibacterial peptides.
# The results of this conformational analysis for pyrrhocoricin—E. coli DnaK interaction are as follows. The CD spectrum of the mixture of the two peptides resembled that of the DnaK fragment alone, except that the intensities were lower, due to the lower intensity of the CD spectrum of pyrrhocoricin.
# To ascertain that this conformational change upon binding was not a spectroscopical artifact, the procedure was repeated with pyrrhocoricin and the DnaK peptide derived from the non-responsive strain S. aureus.
# GroEL = GroEL (Escherichia coli, UniProt P0A6F5); type: binding, E. coli; set-up: purchased; host or cells: E. coli; conditions: then 1 nM fluorescein-K-pyrrhocoricin, no peptide 70 ± 10
# GroEL, sequence (P0A6F5 2-548 limits assumed): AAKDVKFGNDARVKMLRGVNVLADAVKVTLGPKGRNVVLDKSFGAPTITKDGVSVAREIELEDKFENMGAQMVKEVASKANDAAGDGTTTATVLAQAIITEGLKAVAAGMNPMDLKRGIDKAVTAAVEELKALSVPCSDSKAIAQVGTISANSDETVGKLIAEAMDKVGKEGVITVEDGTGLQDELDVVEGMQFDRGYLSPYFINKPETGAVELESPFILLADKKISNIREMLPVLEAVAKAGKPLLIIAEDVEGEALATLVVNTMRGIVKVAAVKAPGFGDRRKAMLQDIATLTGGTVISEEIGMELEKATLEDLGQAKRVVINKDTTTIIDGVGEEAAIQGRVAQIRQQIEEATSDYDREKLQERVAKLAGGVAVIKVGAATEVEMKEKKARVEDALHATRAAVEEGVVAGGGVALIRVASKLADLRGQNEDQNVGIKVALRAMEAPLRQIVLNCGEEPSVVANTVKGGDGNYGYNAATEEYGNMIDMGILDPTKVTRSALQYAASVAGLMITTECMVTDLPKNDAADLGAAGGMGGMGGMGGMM
# [7] = tested on: E. coli strain (ATCC 25922); assay: Validated antibacterial assay conditions, E. coli ATCC 25922; type: cell-based
# E. coli D22 = conditions: Otvos et al, 2000, Protein Science; cited from earlier work
# E. coli infection = conditions: Otvos et al, 2000, cited from earlier work
# Ras = assay: Competition fluorescence polarization against labeled pyrrhocoricin, Ras; type: binding; conditions: 4 μM Ras reading 52±7
# [8] = biological target: E. coli DnaK fragment aa583-615 (D-E helix hinge) (Escherichia coli, UniProt P0A6Y8); assay: Fluorescence polarization with synthetic DnaK fragment aa583-615; type: binding
# E. coli DnaK fragment aa583-615 (D-E helix hinge), sequence (P0A6Y8 584-616): as the sequence (P0A6Y8 584-616 limits assumed) above
# Procedure: The binding of the synthetic DnaK fragments to their fluorescein-labeled pyrrhocoricin counterparts was also assessed in solution, by fluorescence polarization [Lundblad, J. R. et al, (1996) Mol. Endocrinol. 10: 607-612]. For these experiments, the unlabeled peptides were serially diluted in PBS (pH 7.4) or 0.1 M Tris-HCl (pH 8.0) containing 0.1 M ethylene-diamine-tetraacetic acid (EDTA) in 50 μL final volume in 6×50 mm disposable glass borosilicate tubes. The fluoresceinated peptides were added to each tube in a 50 μL aliquot to a final concentration of 1 nM and tubes were incubated at 37° C. for 5 minutes. The extent of fluorescence anisotropy was measured on a Beacon 2000 fluorescence polarization instrument (PanVera, Madison, Wis.) and calculated as millipolarization values. The filters used were 485 nm excitation and 535 nm emission with 3 nm band width. Non-linear curve fitting was done by using a dose-response logistical transition [y=a0+a1/(1+x/a2)^a^3] and the Levenberg-Marquardt Algorithm within the SlideWrite software package. The provided Kd value (a2 coefficient) was calculated by the program.
# To quantitatively characterize the pyrrhocoricin—D-E helix interaction, the complete binding curves were measured for E. coli DnaK fragments aa583-615 and aa588-615, both of SEQ ID NO: 10.
# S. aureus = conditions: Otvos et al, 2000, Biochemistry; cited from earlier work
# bacteria = assay: Bacterial killing by labeled and unlabeled pyrrhocoricin; type: cell-based
# Hsp70 = Hsp70 (Homo sapiens, UniProt P0DMV8); assay: EnzChek ATPase assay, recombinant Hsp70; type: biochemical; conditions: human equivalent of DnaK
# Hsp70, sequence (P0DMV8 whole entry): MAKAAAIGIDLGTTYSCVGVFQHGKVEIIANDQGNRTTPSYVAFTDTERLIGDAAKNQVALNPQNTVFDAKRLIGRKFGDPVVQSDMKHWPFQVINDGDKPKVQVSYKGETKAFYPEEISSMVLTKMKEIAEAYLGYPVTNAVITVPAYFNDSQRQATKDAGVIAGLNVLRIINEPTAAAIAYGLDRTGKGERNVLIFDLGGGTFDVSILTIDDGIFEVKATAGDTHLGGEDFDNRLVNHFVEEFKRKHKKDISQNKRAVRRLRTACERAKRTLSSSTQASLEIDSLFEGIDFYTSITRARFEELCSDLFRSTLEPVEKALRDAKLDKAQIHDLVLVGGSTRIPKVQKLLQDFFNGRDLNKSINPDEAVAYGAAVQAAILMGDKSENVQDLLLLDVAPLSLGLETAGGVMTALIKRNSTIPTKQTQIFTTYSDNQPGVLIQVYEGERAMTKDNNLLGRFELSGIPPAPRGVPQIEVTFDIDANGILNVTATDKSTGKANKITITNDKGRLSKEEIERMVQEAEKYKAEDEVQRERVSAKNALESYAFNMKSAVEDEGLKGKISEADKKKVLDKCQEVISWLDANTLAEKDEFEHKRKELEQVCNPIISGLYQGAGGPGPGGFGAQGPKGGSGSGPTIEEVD
# DnaK = DnaK (Escherichia coli, UniProt P0A6Y8); type: binding, E. coli; set-up: purchased; host or cells: E. coli
# DnaK, sequence (P0A6Y8 whole entry): as the sequence (P0A6Y8 whole entry) above
compound,measurement,setting,value
CC[C@H](C)[C@H](NC(=O)[C@@H]1CCCN1C(=O)[C@H](CCCNC(=N)N)NC(=O)[C@@H]1CCCN1C(=O)[C@@H]1CCCN1C(=O)[C@@H](NC(=O)[C@@H]1CCCN1C(=O)[C@H](CCCNC(=N)N)NC(=O)[C@@H]1CCCN1C(=O)[C@H](CC(C)C)NC(=O)[C@H](Cc1ccc(O)cc1)NC(=O)[C@H](CO)NC(=O)CNC(=O)[C@H](CCCCN)NC(=O)[C@H](CC(=O)O)NC(=O)C1(NC(=O)[C@H](CN)NC(=O)[C@H](CCCNC(=N)N)NC(=O)[C@H](CC(N)=O)NC(=O)[C@H](Cc2ccc(O)cc2)NC(=O)[C@@H](NC(=O)[C@@H]2CCCN2C(=O)[C@H](CCCNC(=N)N)NC(=O)[C@@H]2CCCN2C(=O)[C@@H]2CCCN2C(=O)[C@@H](NC(=O)[C@@H]2CCCN2C(=O)[C@H](CCCNC(=N)N)NC(=O)[C@@H]2CCCN2C(=O)[C@H](CC(C)C)NC(=O)[C@H](Cc2ccc(O)cc2)NC(=O)[C@H](CO)NC(=O)CNC(=O)[C@H](CCCCN)NC(=O)[C@H](CC(=O)O)NC(=O)C2(N)CCCCC2)[C@@H](C)O)[C@@H](C)CC)CCCCC1)[C@@H](C)O)C(=O)N[C@@H](Cc1ccc(O)cc1)C(=O)N[C@@H](CC(N)=O)C(=O)N[C@@H](CCCNC(=N)N)C(=O)N[C@@H](CNC(C)=O)C(=O)O [Chex-Pyrrhocoricin-2-19-Dap-[Chex-Pyrrhocoricin-2-19-Dap(Ac)]] (H-[Ac6c]DKGSYLPRPTPPRPIYNR[Dap][Ac6c]DKGSYLPRPTPPRPIYNR[Dap](Ac)-OH; C-terminus assumed),IC50,M. luteus,40 to 80 µM
GKPRPYSPRPTSHPRPIRV [Drosocin],degradation in diluted mouse serum,[1],completely degraded
same,CD spectral change of the peptide upon mixing with DnaK fragment,E. coli DnaK aa583-615,did not appear to modify the conformation
same,effect on β-galactosidase activity after 6 hours,"[2]; 32 μg/mL, FIG. 2A",detrimental
same,Inhibition of enzymatic activity after 1 hour (%) β-Galactosidase,[2],98 ± 68%
same,Inhibition of enzymatic activity after 1 hour (%) Alkaline Phosphatase,[3],35 ± 27%
same,effect on ATPase activity of recombinant DnaK,recombinant E. coli DnaK,without affecting
same,binding to aa588-615 fragment,[4],considerably weaker than pyrrhocoricin
same,degradation in diluted human serum,[5],completely degraded
VDKGSYLPRPTPPRPIYNRN [pyrrhocoricin],CD spectral change of the peptide upon mixing with DnaK fragment,[6],remained unchanged
same,CD spectral change of the peptide upon mixing with DnaK fragment,E. coli DnaK aa583-615,redshift of both pyrrhocoricin bands
same,Millipolarization after preincubation with,"GroEL; 4 μM GroEL preincubated with 4 μM unlabeled peptide, corrected with Ras readings",62
same,Millipolarization after preincubation with,GroEL; 4 μM GroEL preincubated with 8 μM unlabeled peptide,62
same,killing of E. coli ATCC 25922,[7],failed to kill
same,killing of E. coli D22,E. coli D22,nanomolar concentrations
same,toxicity in vivo,"E. coli infection; higher dose for pyrrhocoricin, compromised animals",toxic to compromised animals
same,protection of mice against E. coli infection,E. coli infection; low doses for pyrrhocoricin,protected mice
same,Inhibition of enzymatic activity after 1 hour (%) β-Galactosidase,[2],153 ± 57%
same,decrease of the Ras readings,Ras; preincubation with 4 μM peptide,16 millipolarization units
same,decrease of the Ras readings,Ras; preincubation with 8 μM peptide,27 millipolarization units
same,Kd,[8],50.8 µM
same,activity against S. aureus in vitro,S. aureus,inactive
same,concentration range killing bacteria,bacteria,mid-nanomolar concentration range
same,Inhibition of enzymatic activity after 1 hour (%) Alkaline Phosphatase,[3],32 ± 16%
same,effect on ATPase activity of recombinant Hsp70,Hsp70,did not influence
same,effect on ATPase activity of recombinant DnaK,recombinant E. coli DnaK,less than half of the original value
same,Millipolarization after preincubation with,DnaK,110 and 84
